Source: US20100099737A1, “COMPOSITIONS AND METHODS FOR TREATING MYELOSUPPRESSION” (priority 2006, published 2010)

Experiments:
Format in all cases: cell-based, human
phospho PKB (Ser 473) = assay: Immunoblot of PKB / phospho PKB (Ser 473) in siRNA-transfected TF1 cells stimulated with GM-CSF; conditions: vs siNS, FIG. 1F
From the text: TF1 cells transfected with siSHIP ([…], SEQ ID NO: 11) or siNS were stimulated with the cytokine GM-CSF for the indicated length of time.

TF1 cells [1] = assay: Proliferation of siRNA-transfected TF1 cells with IL-5, [3H]-thymidine incorporation; conditions: sub-optimal levels of IL-5, 2 days after siRNA transfection, vs siNS, FIG. 1H
Method: (§1) TF1 cells transfected with siSHIP (triangles) or siNS (squares) were cultured in the absence of growth factors and the total number of viable cells counted daily by trypan blue exclusion (FIG. 1G), TF1 cells were cultured in the presence of increasing concentrations of the growth promoting cytokine IL-5, 2 days after siRNA transfection. Proliferation of siSHIP (diamonds) and control siNS (solid diamonds) transfected TF-1 cells was measured by [^3H]-thymidine incorporation (FIG. 1H).

[2] = test system: TF1 hemopoietic progenitor cell line; assay: Resistance of siRNA-transfected TF1 cells to chemotherapy drugs, [3H]-thymidine incorporation; conditions: 4 days after transfection, cisplatin, doxorubicin and taxotere, complete growth media, read 2 days later, vs control siRNA, FIG. 2
Method: The TF1 hemopoietic progenitor cell line was transfected with SHIP1 siRNA or control siRNA as in FIG. 1. After 4 days, the cells were assessed at the indicated concentrations of cisplatin, doxorubicin and taxotere in the presence of complete growth media, [^3H]-thymidine incorporation was measured 2 days later.

TF1 cells [3] = assay: Survival of siRNA-transfected TF1 cells without growth factors, viable cells by trypan blue exclusion; conditions: absence of growth factors, counted daily by trypan blue exclusion, vs siNS, FIG. 1G
Method: as §1

Substance: siSHIP: siRNA to human SHIP1 mRNA (NM_001017915), position 2437, AAGAGTCAGGAAGGAGAAAAT (SEQ ID NO: 11) (listed as DNA, chemistry not given here)
- activation of the PIP3 dependent kinase PKB (phospho PKB Ser 473) (phospho PKB (Ser 473)): enhanced the activation
- proliferation ([3H]-thymidine incorporation) (TF1 cells [1]): considerably increased
- resistance to chemotherapy drugs ([3H]-thymidine incorporation) [2]: significantly more resistant
- survival (total number of viable cells) (TF1 cells [3]): considerably increased survival
